Laboratory results as given in ChEMBL document CHEMBL1201862, “PubChem BioAssay data set” (2004).
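Cells were grown in 96-well plates and exposed to each compound for 48 hours at five concentrations; endpoints were interpolated linearly between bracketing concentrations, or set to the highest concentration if not reached. The concentration for 50% growth inhibition is given as GI50.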 Activity calls are given as the source filed them. No stated cut-off is given here; in the data, active = GI50 up to about 1.1 µM and inactive = higher.

Experiments:
Test in all cases: NCI tumour cell line growth inhibition, 48 h
COLO 205 = tested on: COLO 205
SF-295 = tested on: SF-295
HCC 2998 = tested on: HCC 2998
SK-MEL-2 = tested on: SK-MEL-2
CCRF-CEM = tested on: CCRF-CEM
U-251 = tested on: U-251
Hs-578T = tested on: Hs-578T
UACC-62 = tested on: UACC-62
A549 = tested on: A549
KM12 = tested on: KM12
SNB-75 = tested on: SNB-75
UACC-257 = tested on: UACC-257
OVCAR-3 = tested on: OVCAR-3
OVCAR-5 = tested on: OVCAR-5
SK-OV-3 = tested on: SK-OV-3
SR = tested on: SR
HOP-92 = tested on: HOP-92
HT-29 = tested on: HT-29
MOLT-4 = tested on: MOLT-4

Measured: GI50

O=c1oc2ccc([N+](=O)[O-])cc2c(Nc2ccc3c(c2)Sc2ccccc2O3)c1[N+](=O)[O-]
inactive: COLO 205 19.3 µM | SF-295 38.2 µM | HCC 2998 13.6 µM | SK-MEL-2 20.4 µM | CCRF-CEM 18.9 µM | U-251 17.5 µM | Hs-578T 37 µM | UACC-62 15 µM | A549 24.9 µM | KM12 21.5 µM | SNB-75 39.6 µM | UACC-257 23.2 µM | OVCAR-3 15.9 µM | OVCAR-5 22.1 µM | SK-OV-3 24 µM | SR 22.5 µM | HOP-92 16.3 µM | HT-29 27.2 µM

COC(=O)c1c(O)ccc2c1c1c(n2CCc2ccccc2)C(=O)c2ccccc2C1=O
inactive: COLO 205 1.83 µM | SF-295 19.1 µM | HCC 2998 2.48 µM | SK-MEL-2 15.1 µM | CCRF-CEM 12.8 µM | U-251 12.7 µM | MOLT-4 4.06 µM | Hs-578T 13.3 µM | A549 8.97 µM | KM12 12.2 µM | UACC-257 17.7 µM | OVCAR-3 6.7 µM | OVCAR-5 20.2 µM | SK-OV-3 18.3 µM | SR 5.28 µM | HOP-92 16.3 µM | HT-29 11.8 µM

N#Cc1nc(/C=C/c2nc(C#N)c(N)o2)oc1N
inactive: COLO 205 > 10 µM | SF-295 > 10 µM | HCC 2998 > 10 µM | CCRF-CEM > 10 µM | Hs-578T > 10 µM | UACC-62 > 10 µM | A549 > 10 µM | KM12 > 10 µM | SNB-75 > 10 µM | UACC-257 > 10 µM | SK-OV-3 > 10 µM | SR > 10 µM | HOP-92 > 10 µM | HT-29 > 10 µM

O=C1CC(c2ccc([N+](=O)[O-])cc2)C2(C(=O)NC(=S)NC2=O)C(c2ccc([N+](=O)[O-])cc2)C1 (stereo not drawn)
inactive: COLO 205 33.5 µM | SF-295 25.5 µM | HCC 2998 24.4 µM | CCRF-CEM 27.7 µM | U-251 18.7 µM | MOLT-4 73.3 µM | Hs-578T 25.8 µM | UACC-62 14.8 µM | A549 19.6 µM | KM12 18.5 µM | SNB-75 > 100 µM | UACC-257 18.1 µM | OVCAR-3 32 µM | OVCAR-5 35.5 µM | SK-OV-3 35.9 µM | SR 52.2 µM | HOP-92 26.9 µM | HT-29 59.8 µM

CCOC(=O)C1=c2[nH]c3cccc4cccc(c43)n2C(=O)CC1c1ccccc1 (stereo not drawn)
inactive: COLO 205 > 100 µM | SF-295 > 100 µM | HCC 2998 > 100 µM | SK-MEL-2 > 100 µM | CCRF-CEM > 100 µM | U-251 > 100 µM | MOLT-4 > 100 µM | Hs-578T > 100 µM | UACC-62 > 100 µM | A549 > 100 µM | KM12 > 100 µM | SNB-75 > 100 µM | UACC-257 > 100 µM | OVCAR-5 > 100 µM | SK-OV-3 > 100 µM | SR > 100 µM | HOP-92 > 100 µM | HT-29 > 100 µM

CNC(=O)c1nn[nH]c1O
inactive: COLO 205 > 100 µM | SF-295 > 100 µM | HCC 2998 > 100 µM | SK-MEL-2 > 100 µM | CCRF-CEM > 100 µM | U-251 > 100 µM | MOLT-4 > 100 µM | Hs-578T 98.4 µM | UACC-62 > 100 µM | A549 > 100 µM | KM12 > 100 µM | SNB-75 74.1 µM | UACC-257 > 100 µM | OVCAR-5 > 100 µM | SK-OV-3 > 100 µM | SR > 100 µM | HOP-92 > 100 µM | HT-29 > 100 µM
